Data from PubChem BioAssay AID330 (DTP/NCI, 2004).
“And” between values parts separate entries of the source, which are not always exact repeats. Equal entries are not always repeated. Toxic doses and inconclusive results are not listed.

Tested on: P388 leukemia ip, CD2F1 mice, survival T/C
Test: NCI In Vivo Anticancer Drug Screen. Data for tumor model P388 Leukemia (intraperitoneal) in CD2F1 (CDF1) mice
Conditions: endpoint: median survival time, higher = longer survival
Summary of the method: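 Mice carrying the transplanted tumor received test compound or vehicle. Survival was recorded in each group, and the value is the treated-group measurement divided by that of the vehicle-treated control group.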

[1] = dose: 100.0 mg/kg/injection, schedule: Q01DX009 (ip), vehicle: saline with Tween-80
[2] = dose: 200.0 mg/kg/injection, schedule: Q01DX009 (ip), vehicle: saline with Tween-80
[3] = dose: 100.0 mg/kg/injection, schedule: Q01DX001 (ip), vehicle: Klucel (hydroxypropylcellulose) (HPC)
[4] = dose: 200.0 mg/kg/injection, schedule: Q01DX001 (ip), vehicle: Klucel (hydroxypropylcellulose) (HPC)
[5] = dose: 400.0 mg/kg/injection, schedule: Q01DX001 (ip), vehicle: Klucel (hydroxypropylcellulose) (HPC)
[6] = dose: 50.0 mg/kg/injection, schedule: Q01DX005 (ip), vehicle: Klucel (hydroxypropylcellulose) (HPC)
[7] = dose: 50.0 mg/kg/injection, schedule: Q01DX009 (ip), vehicle: saline
[8] = dose: 100.0 mg/kg/injection, schedule: Q01DX009 (ip), vehicle: saline
[9] = dose: 100.0 mg/kg/injection, schedule: Q01DX005 (ip), vehicle: Klucel (hydroxypropylcellulose) (HPC)
[10] = dose: 200.0 mg/kg/injection, schedule: Q01DX005 (ip), vehicle: Klucel (hydroxypropylcellulose) (HPC)
[11] = dose: 50.0 mg/kg/injection, schedule: Q01DX009 (ip), vehicle: Klucel (hydroxypropylcellulose) (HPC)
[12] = dose: 100.0 mg/kg/injection, schedule: Q01DX009 (ip), vehicle: Klucel (hydroxypropylcellulose) (HPC)
[13] = dose: 200.0 mg/kg/injection, schedule: Q01DX009 (ip), vehicle: Klucel (hydroxypropylcellulose) (HPC)
[14] = dose: 50.0 mg/kg/injection, schedule: Q01DX005 (ip), vehicle: saline
[15] = dose: 100.0 mg/kg/injection, schedule: Q01DX005 (ip), vehicle: saline
[16] = dose: 200.0 mg/kg/injection, schedule: Q01DX005 (ip), vehicle: saline
[17] = dose: 100.0 mg/kg/injection, schedule: Q04DX003 (ip), vehicle: saline
[18] = dose: 200.0 mg/kg/injection, schedule: Q04DX003 (ip), vehicle: saline
[19] = dose: 50.0 mg/kg/injection, schedule: Q01DX005 (ip), vehicle: saline with Tween-80
[20] = dose: 100.0 mg/kg/injection, schedule: Q01DX005 (ip), vehicle: saline with Tween-80
[21] = dose: 200.0 mg/kg/injection, schedule: Q01DX005 (ip), vehicle: saline with Tween-80

SMILES: COc1cc2c(cc1O)CCCC=C2C1CCCCc2cc(O)c(OC)cc21 (centres undefined)
- T/C [1]: 104 % of control
- T/C [2]: 94 % of control
- T/C (dose: 400.0 mg/kg/injection, schedule: Q01DX009 (ip), vehicle: saline with Tween-80): 91 % of control

SMILES: CC1(C)NC(=O)c2c(-c3ccccc3)c(-c3ccccc3)n(-c3ccccc3)c2N1
- T/C (dose: 50.0 mg/kg/injection, schedule: Q01DX009 (ip), vehicle: suspension in saline): 96 % of control
- T/C (dose: 100.0 mg/kg/injection, schedule: Q01DX009 (ip), vehicle: suspension in saline): 98 % of control
- T/C (dose: 200.0 mg/kg/injection, schedule: Q01DX009 (ip), vehicle: suspension in saline): 101 % of control

SMILES: COC(=O)Nc1nnc(Cn2c([N+](=O)[O-])cnc2C)s1
- T/C [3]: 96 % of control
- T/C [4]: 101 % of control
- T/C [5]: 93 % of control

SMILES: O=C1CCC2(CC1)CCc1ccccc1C2=O
- T/C (dose: 100.0 mg/kg/injection, schedule: Q01DX001 (ip), vehicle: saline with Tween-80): 103 % of control
- T/C (dose: 200.0 mg/kg/injection, schedule: Q01DX001 (ip), vehicle: saline with Tween-80): 97 % of control
- T/C (dose: 400.0 mg/kg/injection, schedule: Q01DX001 (ip), vehicle: saline with Tween-80): 103 % of control

SMILES: O=C(O)c1cnc2cc(C(F)(F)F)ccc2c1Nc1ccc2c(c1)OCO2
- T/C (dose: 60.0 mg/kg/injection, schedule: Q01DX005 (ip), vehicle: Klucel + Tween-80): 103 % of control
- T/C (dose: 120.0 mg/kg/injection, schedule: Q01DX005 (ip), vehicle: Klucel + Tween-80): 98 % of control
- T/C (dose: 240.0 mg/kg/injection, schedule: Q01DX005 (ip), vehicle: Klucel + Tween-80): 97 % of control

SMILES: CC1=CC(C/C(C)=C/COc2ccc3ccc(=O)oc3c2)OC1=O (centres undefined)
- T/C (dose: 12.5 mg/kg/injection, schedule: Q01DX005 (ip), vehicle: Klucel (hydroxypropylcellulose) (HPC)): 87 % of control
- T/C (dose: 25.0 mg/kg/injection, schedule: Q01DX005 (ip), vehicle: Klucel (hydroxypropylcellulose) (HPC)): 90 % of control
- T/C [6]: 97 % of control

SMILES: CC12CCCC(O1)C(C)(C)O2 (centres undefined)
- T/C [7]: 99 % of control
- T/C [8]: 89 % of control

SMILES: O=C1NC(CN2CCCCC2)C(=O)NC1CN1CCCCC1 (centres undefined)
- T/C (dose: 60.0 mg/kg/injection, schedule: Q01DX005 (ip), vehicle: Klucel (hydroxypropylcellulose) (HPC)): 89 % of control
- T/C (dose: 120.0 mg/kg/injection, schedule: Q01DX005 (ip), vehicle: Klucel (hydroxypropylcellulose) (HPC)): 92 % of control

SMILES: COc1ccc(OC)c(CCc2cc(OC)ccc2OC)c1
- T/C (dose: 0.78 mg/kg/injection, schedule: Q01DX009 (ip), vehicle: DMSO): 88 % of control
- T/C (dose: 6.25 mg/kg/injection, schedule: Q01DX009 (ip), vehicle: DMSO): 92 % of control
- T/C (dose: 25.0 mg/kg/injection, schedule: Q01DX009 (ip), vehicle: DMSO): 94 % of control
- T/C (dose: 50.0 mg/kg/injection, schedule: Q01DX009 (ip), vehicle: DMSO): 109 % of control

SMILES: O=c1[nH]c(=O)n(C2OC(CF)C(O)C2O)cc1Br (centres undefined)
- T/C [6]: 96 % of control
- T/C [9]: 96 % of control
- T/C [10]: 98 % of control

SMILES: O=C(Sc1ccccc1)N1CCN(C(=O)Sc2ccccc2)CC1
- T/C [11]: 100 % of control
- T/C [12]: 100 % of control
- T/C [13]: 109 % of control

SMILES: O=C(c1ccccc1)C12CCC(CC1)C2
- T/C [11]: 103 % of control
- T/C [12]: 103 % of control
- T/C [13]: 110 % of control

SMILES: O=NN(CC(=O)O)CC1(O)OCC(O)C(O)C1O (centres undefined)
- T/C [14]: 94 % of control
- T/C [15]: 105 % of control
- T/C [16]: 103 % of control

SMILES: O=C1/C(=C\c2ccccc2)C2OCC=C3CN4CCC56c7ccccc7N1C5C2C3CC46 (centres undefined)
- T/C (dose: 7.5 mg/kg/injection, schedule: Q01DX005 (ip), vehicle: saline with Tween-80): 106 % of control
- T/C (dose: 15.0 mg/kg/injection, schedule: Q01DX005 (ip), vehicle: saline with Tween-80): 108 % of control
- T/C (dose: 30.0 mg/kg/injection, schedule: Q01DX005 (ip), vehicle: saline with Tween-80): 99 % of control

SMILES: COC(OC(CO)C(O)S(=O)(=O)O)C(O)S(=O)(=O)O (centres undefined)
- T/C (dose: 6.25 mg/kg/injection, schedule: Q01DX009 (ip), vehicle: saline): 100 % of control
- T/C (dose: 12.5 mg/kg/injection, schedule: Q01DX009 (ip), vehicle: saline): 105 % of control
- T/C (dose: 25.0 mg/kg/injection, schedule: Q01DX009 (ip), vehicle: saline): 118 % of control
- T/C [7]: 173 % of control
- T/C [8]: 155 % of control
- T/C (dose: 200.0 mg/kg/injection, schedule: Q01DX009 (ip), vehicle: saline): 157 % of control

SMILES: CCS(CC)=NC(=O)C(Cl)Cl
- T/C (dose: 50.0 mg/kg/injection, schedule: Q01DX001 (ip), vehicle: Klucel (hydroxypropylcellulose) (HPC)): 100 % of control and 104 % of control and 97 % of control
- T/C [3]: 99 % of control and 100 % of control and 94 % of control
- T/C [4]: 99 % of control and 100 % of control and 123 % of control
- T/C [5]: 111 % of control and 95 % of control

SMILES: C[N+](C)(C)N=P(O)(N[N+](C)(C)C)Oc1ccccc1 (centres undefined)
- T/C (dose: 60.0 mg/kg/injection, schedule: Q01DX005 (ip), vehicle: saline): 95 % of control
- T/C (dose: 120.0 mg/kg/injection, schedule: Q01DX005 (ip), vehicle: saline): 100 % of control
- T/C (dose: 240.0 mg/kg/injection, schedule: Q01DX005 (ip), vehicle: saline): 95 % of control

SMILES: CC(=O)OCC1CN2CC1(c1ccccc1)C(=O)NC2=O (centres undefined)
- T/C (dose: 100.0 mg/kg/injection, schedule: Q01DX001 (ip), vehicle: saline): 102 % of control
- T/C (dose: 200.0 mg/kg/injection, schedule: Q01DX001 (ip), vehicle: saline): 102 % of control
- T/C (dose: 400.0 mg/kg/injection, schedule: Q01DX001 (ip), vehicle: saline): 100 % of control

SMILES: COc1ccccc1C(Nc1ccc([N+](=O)[O-])cc1)P(=O)(Oc1ccccc1)Oc1ccccc1 (centres undefined)
- T/C [6]: 95 % of control
- T/C [9]: 106 % of control
- T/C [10]: 95 % of control

SMILES: Clc1nc(Cl)c2[nH]c(Cl)nc2n1
- T/C [6]: 99 % of control
- T/C [9]: 99 % of control
- T/C [10]: 102 % of control

SMILES: O=[N+]([O-])c1c(Nc2ccccc2)nc(-c2ccccc2)nc1Nc1ccccc1
- T/C [17]: 90 % of control
- T/C [18]: 92 % of control
- T/C (dose: 400.0 mg/kg/injection, schedule: Q04DX003 (ip), vehicle: saline): 90 % of control

SMILES: CC1=C(C(=O)CC(=O)C(=O)Nc2cc(Cl)c(Cl)cc2Cl)Sc2ccccc2N1
- T/C [19]: 101 % of control
- T/C [20]: 102 % of control
- T/C [21]: 98 % of control

SMILES: NC1(N2SC(S)=C3CCCC=C32)CCCCC1
- T/C (dose: 50.0 mg/kg/injection, schedule: Q01DX009 (ip), vehicle: saline with Tween-80): 97 % of control
- T/C [1]: 100 % of control
- T/C [2]: 105 % of control

SMILES: Cc1ncc(C[n+]2cccc(CCO)c2C)c(N)n1
- T/C (dose: 50.0 mg/kg/injection, schedule: Q04DX003 (ip), vehicle: saline): 97 % of control
- T/C [17]: 103 % of control
- T/C [18]: 100 % of control

SMILES: OCC1OC(Oc2ncccn2)C(O)C1O (centres undefined)
- T/C [14]: 97 % of control
- T/C (dose: 50.0 mg/kg/injection, schedule: Q01DX005 (ip), vehicle: suspension in saline): 99 % of control
- T/C [15]: 99 % of control
- T/C (dose: 100.0 mg/kg/injection, schedule: Q01DX005 (ip), vehicle: suspension in saline): 99 % of control
- T/C [16]: 101 % of control
- T/C (dose: 200.0 mg/kg/injection, schedule: Q01DX005 (ip), vehicle: suspension in saline): 98 % of control
- T/C (dose: 400.0 mg/kg/injection, schedule: Q01DX005 (ip), vehicle: saline): 104 % of control
- T/C (dose: 400.0 mg/kg/injection, schedule: Q01DX005 (ip), vehicle: suspension in saline): 99 % of control

SMILES: CCc1nc(N)nc(N)c1-c1ccc(NC)c([N+](=O)[O-])c1
- T/C [9]: 182 % of control

SMILES: CC(=O)OC/C(C)=N\NS(=O)(=O)c1cc(Cl)c(Cl)cc1Cl
- T/C [7]: 99 % of control
- T/C [8]: 86 % of control

SMILES: CC(c1ccc(OCc2ccccc2)cc1)c1cc2c(cc1OCCO)OCO2 (centres undefined)
- T/C [19]: 98 % of control
- T/C [20]: 100 % of control
- T/C [21]: 100 % of control
